From PMC11855827, “High-Throughput Screening of Five Compound Libraries for Anthelmintic Activity and Toxicity Leads to the Discovery of Two Flavonoid Compounds” (International Journal of Molecular Sciences, 2025) come the findings set out here.

Structures are written as SMILES. Where two headings read alike, the source gives them in different places.

This assay concerns C. elegans. The assay can be described thus: microbe, parasite or virus in culture. Particulars: Caenorhabditis elegans.
[1] abbreviates: 0 h, read-out: Percentage of motility inhibition 0 h, Table S2, C. elegans SS assay, 110 μM, 0 h, averages of 4 data points.
Setting [2] is: 24 h, read-out: Percentage of motility inhibition 24 h, Table S2, C. elegans SS assay, 110 μM, 24 h, averages of 4 data points.
Setting [3] is: 0 h, read-out: Percentage of motility inhibition 0 h.
Setting [4] is: 24 h, read-out: Percentage of motility inhibition 24 h.

On to `O=C(O)[C@H]1O[C@@H](Oc2c(O)cc(O)c3c(=O)c(O)c(-c4ccc(O)c(O)c4)oc23)[C@H](O)[C@@H](O)[C@@H]1O` [Hibifolin], for which the inhibition at 110 µM runs as follows: under setting [1], 6%; under setting [2], 1%.

In the case of `Cc1cn([C@@H]2C[C@@H](O)[C@H](CO)O2)c(=O)[nH]c1=O` [Telbivudine], the inhibition at 110 µM runs as follows: under setting [1], 39%; under setting [2], 1%.

As for `CC(C)(C)NC(=O)[C@@H]1C[C@@H]2CCCC[C@@H]2CN1C[C@@H](O)[C@H](Cc1ccccc1)NC(=O)[C@H](CC(N)=O)NC(=O)c1ccc2ccccc2n1` [Saquinavir], the inhibition at 110 µM reads like this: under setting [1], 37%; under setting [2], 0%.

Turning to `Cc1ncc([N+](=O)[O-])n1CC(O)CCl` (centres unmarked) [Ornidazole], the inhibition at 110 µM was found to be 8% under setting [1] and 7% under setting [2].

Take `COc1ccc2[nH]cc(CCNC(C)=O)c2c1` [Melatonin]: the inhibition at 110 µM under setting [1] was determined as 66% and the inhibition at 110 µM under setting [2] is 24%.

Consider `CCC(C)n1ncn(-c2ccc(N3CCN(c4ccc(OCC5COC(Cn6cncn6)(c6ccc(Cl)cc6Cl)O5)cc4)CC3)cc2)c1=O` (centres unmarked) [Itraconazole], for which the inhibition at 110 µM was found to be 18% under setting [1] and 22% under setting [2].

In the case of `C=C(C)[C@H]1CN[C@H](C(=O)O)[C@H]1CC(=O)O` [Kainic acid], the inhibition at 110 µM is 0% under setting [1] and 0% under setting [2].

Turning to `C[C@H]1[C@H](C)CC[C@]2(C(=O)O)CC[C@]3(C)C(=CC[C@@H]4[C@@]5(C)CC[C@H](O)C(C)(C)[C@@H]5CC[C@]43C)[C@H]12` [Ursolic acid], the inhibition at 110 µM runs as follows: under setting [1], 0%; under setting [2], 0%.

Consider `C=C1C(=O)O[C@@H]2/C=C(\C)CC/C=C(\C)CC[C@@H]12` [Costunolide], for which the inhibition at 110 µM is, setting by setting: under setting [1], 0%; under setting [2], 21%.

`CC(C)=CCC/C(C)=C/CO` [Geraniol]: the inhibition at 110 µM is 0% under setting [1] and 3% under setting [2].

`CCN1C[C@]2(C)CC[C@H](OC)[C@@]34C1[C@]1(OCO[C@@]15C[C@H](OC)[C@H]1C[C@]3(O)[C@@H]5[C@H]1OC)[C@@H](OC(C)=O)[C@H]24` [Deltaline]: the inhibition at 110 µM under setting [1] came out at 0% and the inhibition at 110 µM under setting [2] turned out to be 0%.

In the case of `CC1(C)C=Cc2c(ccc3c2OC[C@@H](c2ccc(O)cc2O)C3)O1` [Glabridin], the inhibition at 110 µM by setting is: under setting [1], 26%; under setting [2], 6%.

Turning to `Oc1c(Cl)cc(Cl)cc1Sc1cc(Cl)cc(Cl)c1O` [Bithionol], the inhibition at 110 µM by setting is: under setting [1], 40%; under setting [2], 40%.

For `CC(=O)OC/C=C(C)/C=C/C=C(C)/C=C/C1=C(C)CCCC1(C)C` [Retinyl acetate], the inhibition at 110 µM reads like this: under setting [1], 0%; under setting [2], 0%.

Consider `C[C@@]12C[C@@]3(O)O[C@@H](O1)[C@]1(COC(=O)c4ccccc4)[C@H]3C[C@@]12O[C@@H]1O[C@H](CO)[C@@H](O)[C@H](O)[C@H]1O` [Paeoniflorin], for which the inhibition at 110 µM is, setting by setting: under setting [1], 4%; under setting [2], 10%.

With `COc1cc2c(cc1Cc1cccc(Cl)c1F)c(=O)c(C(=O)O)cn2[C@H](CO)C(C)C` [Elvitegravir], the inhibition at 110 µM reads like this: under setting [1], 23%; under setting [2], 48%.

In the case of `COc1cc(CNC(=O)CCCCCCC(C)C)ccc1O` [Dihydrocapsaicin], the inhibition at 110 µM by setting is: under setting [1], 0%; under setting [2], 7%.

As to `Cc1ncc([N+](=O)[O-])n1CC(C)O` (centres unmarked) [Secnidazole], the inhibition at 110 µM under setting [3] came to 26% and the inhibition at 110 µM under setting [4] was 3%.

Turning to `CC(C)c1ccc2c(c1)CC[C@H]1[C@](C)(C(=O)O)CCC[C@]21C` [Dehydroabietic acid], the inhibition at 110 µM came to 4% under setting [1] and 17% under setting [2].

As for `C=C[C@H]1CN2CC[C@H]1C[C@H]2[C@H](O)c1ccnc2ccccc12` [Cinchonidine], the inhibition at 110 µM is 0% under setting [1] and 0% under setting [2].

As for `CC[C@H]1OC(=O)[C@H](C)[C@@H](O[C@H]2C[C@@](C)(OC)[C@@H](O)[C@H](C)O2)[C@H](C)[C@@H](O[C@@H]2O[C@H](C)C[C@H](N(C)C)[C@H]2O)[C@](C)(OC)C[C@@H](C)C(=O)[C@H](C)[C@@H](O)[C@]1(C)O` [Clarithromycin], the inhibition at 110 µM was 12% under setting [1] and 10% under setting [2].

Regarding `CC(C)C1=C[C@H]2[C@@H](CC[C@]2(C)O)[C@](C)(O)CC1` [Alismoxide], the inhibition at 110 µM reads like this: under setting [1], 2%; under setting [2], 0%.

As for `C=C[C@](C)(O)CC[C@@H]1[C@@]2(C)CCCC(C)(C)[C@@H]2CC[C@@]1(C)O` [Sclareol], the inhibition at 110 µM by setting is: under setting [1], 28%; under setting [2], 10%.

For `COc1cc([C@@H]2c3cc4c(cc3[C@H](O)[C@H]3COC(=O)[C@H]23)OCO4)cc(OC)c1OC` [Podofilox], the inhibition at 110 µM is, setting by setting: under setting [1], 0%; under setting [2], 9%.

On to `COC(=O)N[C@H](C(=O)N1CC2(CC2)C[C@H]1c1nc(-c2ccc3c(c2)C(F)(F)c2cc(-c4ccc5[nH]c([C@@H]6[C@H]7CC[C@H](C7)N6C(=O)[C@@H](NC(=O)OC)C(C)C)nc5c4)ccc2-3)c[nH]1)C(C)C` [Ledipasvir], for which the inhibition at 110 µM stood at 25% under setting [1] and 1% under setting [2].

In the case of `CC(C)=CCC[C@](C)(O[C@@H]1O[C@H](CO)[C@@H](O)[C@H](O)[C@H]1O)[C@H]1CC[C@]2(C)[C@@H]1[C@H](O)C[C@@H]1[C@@]3(C)CC[C@H](O[C@@H]4O[C@H](CO)[C@@H](O)[C@H](O)[C@H]4O[C@@H]4O[C@H](CO)[C@@H](O)[C@H](O)[C@H]4O)C(C)(C)[C@@H]3CC[C@]12C` [Ginsenoside Rd], the inhibition at 110 µM is, setting by setting: under setting [1], 4%; under setting [2], 4%.

`COc1cc(OC)cc(OC)c1` [1,3,5‐Trimethoxybenzene]: the inhibition at 110 µM worked out at 1% under setting [1] and 25% under setting [2].

`COC1=C[C@]23CCCN2CCc2cc4c(cc2[C@@H]3[C@@H]1O)OCO4` [Cephalotaxine]: the inhibition at 110 µM is 0% under setting [1] and 0% under setting [2].

On to `C[C@H](Cn1cnc2c(N)ncnc21)OCP(=O)(O)O` [Tenofovir], for which the inhibition at 110 µM by setting is: under setting [1], 22%; under setting [2], 16%.

As to `COc1cc2c(cc1OC)[C@@H]1C(=O)c3ccc4c(c3O[C@@H]1CO2)C=CC(C)(C)O4` [Deguelin], the inhibition at 110 µM was found to be 0% under setting [1] and 0% under setting [2].

For `CC1=C[C@H]2[C@@]3(O)[C@H](C)[C@@H](O)[C@]4(O)[C@H]([C@@H]3C=C(CO)C[C@]2(O)C1=O)C4(C)C` [Phorbol], the inhibition at 110 µM by setting is: under setting [1], 0%; under setting [2], 6%.

Turning to `C[C@@H](O)[C@H]1C(=O)N2C(C(=O)O)=C(SC3CN(C4=NCCS4)C3)[C@H](C)[C@H]12` [Tebipenem], the inhibition at 110 µM by setting is: under setting [1], 0%; under setting [2], 7%.

`Cn1c(Cc2ccccc2)nc(=O)c2ccccc21` [Arborine]: the inhibition at 110 µM was 0% under setting [1] and 4% under setting [2].

Regarding `N[C@@H](CCC(=O)O)C(=O)O` [L-Glutamic acid], the inhibition at 110 µM under setting [1] worked out at 3% and the inhibition at 110 µM under setting [2] stood at 1%.

In the case of `CCCOC(=O)c1cc(O)c(O)c(O)c1` [Propyl gallate], the inhibition at 110 µM runs as follows: under setting [1], 1%; under setting [2], 0%.

`COc1c(-c2ccc3cc(NS(C)(=O)=O)ccc3c2)cc(-n2ccc(=O)[nH]c2=O)cc1C(C)(C)C` [ABT‐333]: the inhibition at 110 µM by setting is: under setting [1], 40%; under setting [2], 0%.

For `CC[C@@H]([C@H](C)O)n1ncn(-c2ccc(N3CCN(c4ccc(OC[C@@H]5CO[C@@](Cn6cncn6)(c6ccc(F)cc6F)C5)cc4)CC3)cc2)c1=O` [Posaconazole], the inhibition at 110 µM under setting [1] came to 23% and the inhibition at 110 µM under setting [2] was found to be 0%.

Consider `C=C(C)[C@@H]1CC[C@]2(C(=O)O)CC[C@]3(C)[C@H](CC[C@@H]4[C@@]5(C)CC[C@H](OC(=O)CC(C)(C)C(=O)O)C(C)(C)[C@@H]5CC[C@]43C)[C@@H]12` [Bevirimat], for which the inhibition at 110 µM under setting [1] was determined as 3% and the inhibition at 110 µM under setting [2] worked out at 30%.

As to `CC1(C)CC[C@]2(C(=O)O)[C@H](O)C[C@]3(C)C(=CC[C@@H]4[C@@]5(C)CC[C@H](O)[C@@](C)(C=O)[C@@H]5CC[C@]43C)[C@@H]2C1` [Quillaic acid], the inhibition at 110 µM is, setting by setting: under setting [1], 14%; under setting [2], 16%.

`C/C(C=O)=C\CC[C@@H](C)[C@H]1CC[C@@]2(C)C3=CC[C@H]4C(C)(C)C(=O)CC[C@]4(C)C3=CC[C@]12C` [Ganoderal A]: the inhibition at 110 µM runs as follows: under setting [1], 7%; under setting [2], 25%.

On to `COc1cc2c(=O)c(-c3ccc(O)cc3)coc2cc1O` [Glycitein], for which the inhibition at 110 µM is, setting by setting: under setting [1], 0%; under setting [2], 0%.

On to `C=C[C@@]1(C)Cc2occ(C)c2[C@@H]2OC(=O)C(=C)[C@@H]21` [Isolinderalactone], for which the inhibition at 110 µM is 13% under setting [1] and 9% under setting [2].

For the compound `O=c1c(O)c(-c2ccc(O)cc2)oc2c(O)c(O)cc(O)c12` [Herbacetin], the inhibition at 110 µM was 4% under setting [3] and 13% under setting [4].

As for `C[C@@H]1C(=O)O[C@H]2C[C@@]34[C@H]5C[C@@H](C(C)(C)C)[C@]36[C@@H](OC(=O)[C@@H]6O)O[C@@]4(C(=O)O5)[C@]21O` [Ginkgolide A], the inhibition at 110 µM was determined as 2% under setting [1] and 8% under setting [2].

As for `COc1c(N2CCNC(C)C2)c(F)cc2c(=O)c(C(=O)O)cn(C3CC3)c12` (centres unmarked) [Gatifloxaci n], the inhibition at 110 µM under setting [1] came to 0% and the inhibition at 110 µM under setting [2] is 0%.

For the compound `CC1(C)CC[C@]2(C(=O)O)CC[C@]3(C)C(=CC[C@@H]4[C@@]5(C)C[C@@H](O)[C@H](O)[C@@](C)(CO)[C@@H]5CC[C@]43C)[C@@H]2[C@@H]1O` [Arjungenin], the inhibition at 110 µM runs as follows: under setting [1], 0%; under setting [2], 36%.

As a reminder, the inhibition is the percentage by which the read-out fell short of the control.
